Results on 33 molecules are retold here after US12497405B2, “Bicyclic heterocycle compounds methods of use thereof for the treatment of herpes viruses” (Merck Sharp & Dohme LLC, priority 2019, dated 2025).

The EC50 is the concentration at which the effect is half-maximal.

Holding throughout (format): cell-based
The subject of experiment [1] is HSV2. Briefly: Viral qPCR assay, HSV2. The note with it: infected cells, viral genome copies by qPCR normalized to PPIA, read-out: HSV2 Cell EC50. As for the experimental part:
(§1) MRC5 cells, Vero cells, and MeWo cells were obtained from ATCC, and were maintained at 37° C./5% CO2/90% relative humidity in Minimal Essential Medium with 10% fetal bovine serum, […] L-glutamine, 100 units/ml penicillin and 100 ug/ml streptomycin. Assay plates were prepared by dispensing compounds dissolved in DMSO into wells of 384 well collagen-coated plates using an ECHO acoustic dispenser. Each test compound was tested in a 10-point, serial 3-fold dilution. Controls included uninfected cells and infected cells treated only with DMSO. Assays were initiated by mixing selected cells, in suspension, with virus, and dispensing 50 μl/well infected cells to pre-plated compounds. Plates were incubated at 37° C./5% CO2/90% relative humidity for ˜72 hrs to permit genomic replication, and infected cells were lysed by the addition of an equal volume of lysis buffer (10 mM Tris-HCl, pH8, 50 mM KCl, 2 mM MgCl2, 0.45% NP-40, 0.45% Tween-20, and 100 µg/ml proteinase K). An aliquot of the lysate was then transferred to a 384-well PCR plate and incubated at 56° C. for 1 hour, and then at 95° C. for 10 minutes. Levels of the selected viral gene and of the cellular control, PPIA, were measured in separate 10 μl qPCR assays using TaqMan® Gene Expression Master Mix (Applied Biosystems), and an 7900HT Fast Real-Time PCR System with 384-Well Block Module. 7-point, serial 10-fold dilutions of a plasmid standard were run on each plate to generate a standard curve, and genome copies numbers were calculated by plotting experimental Ct onto linear regression of the standard curve. Viral genome copy numbers were normalized by cellular control copy number, and compound effects were normalized to the window defined by the controls. Calculated % effects were fit using a 4-parameter algorithm, and EC50 was reported.
For orientation: Real-time PCR tracks product formation cycle by cycle.

For experiment [2], the system named is CMV. Briefly: Viral qPCR assay, CMV. To be noted: infected cells, viral genome copies by qPCR normalized to PPIA, read-out: CMV Cell EC50. The procedure:
as §1

Experiment [3] has as its system HSV1. The experiment is described as follows: Viral qPCR assay, HSV1. To be noted: infected cells, viral genome copies by qPCR normalized to PPIA, read-out: HSV1 Cell EC50. As for the experimental part:
as §1

Where two headings read alike, the source gives them in different places.

For the molecule `O=C1OC[C@@H]2C[C@@H](Oc3cc4c(=O)n(Cc5ccc(Cl)cc5)c(OC5CCC(O)CC5)nc4cc3-c3cnn(C(F)F)c3)CCN12` (single isomer, unassigned) [Example 141], the EC50 in experiment [1] (Human alphaherpesvirus 2, 72 h) amounted to 0.184 µM; in experiment [2] (~72 hrs), 0.205 µM; in experiment [3] (Human alphaherpesvirus 1, 72 h) it was 0.258 µM.
As to `O=C1OC[C@@H]2C[C@@H](Oc3cc4c(=O)n(Cc5ccc(Cl)cc5)c(OC5CCC(O)CC5)nc4cc3-c3cnn(C(F)F)c3)CCN12` (single isomer, unassigned) [Example 143], the results for the half-maximal effective concentration (EC50) in experiment [1] (~72 hrs), in experiment [2] (~72 hrs) and in experiment [3] (~72 hrs) were 0.181 µM, 0.095 µM and 0.213 µM, respectively.
With `Cc1nc2cc(-c3cc4n(n3)C(C(F)(F)F)CN(C)C4)c(O[C@H]3CCN4C(=O)OC[C@@H]4C3)cc2c(=O)n1Cc1ccc(Cl)cc1` (single isomer, unassigned) [Example 151], the EC50 in experiment [1] (Human alphaherpesvirus 2, 72 h) worked out at 0.176 µM; in experiment [2] (Human betaherpesvirus 5, 72 h), 0.178 µM; in experiment [3] (Human alphaherpesvirus 1, 72 h) it was 0.233 µM.
`Cc1nc2cc(-c3cc4n(n3)C(C(F)(F)F)CN(C)C4)c(O[C@H]3CCN4C(=O)OC[C@@H]4C3)cc2c(=O)n1Cc1ccc(Cl)cc1` (single isomer, unassigned) [Example 152]: the values for the half-maximal effective concentration (EC50) in experiment [1] (~72 hrs), in experiment [2] (~72 hrs) and in experiment [3] (~72 hrs) were 0.226 µM, 0.159 µM and 0.231 µM, respectively.
In the case of `Cc1nc2cc(-c3cc4ccccn4n3)c(O[C@H]3CCN4C(=O)OC[C@@H]4C3)cc2c(=O)n1Cc1ccc(Cl)cc1` [Example 15], the EC50 turned out to be 0.041 µM in experiment [1] (Human alphaherpesvirus 2, 72 h); 0.06 µM in experiment [2] (Human betaherpesvirus 5, 72 h); 0.074 µM in experiment [3] (Human alphaherpesvirus 1, 72 h).
The corresponding values for `Cc1nc2cc(-c3cn4ccnc4s3)c(O[C@H]3CCN4C(=O)OC[C@@H]4C3)cc2c(=O)n1Cc1ccc(Cl)cc1` [Example 16] are 0.018 µM, 0.033 µM and 0.042 µM.
In the same order, the values of `Cc1nc2nc(-c3ccn(C(F)F)n3)c(O[C@H]3CCN4C(=O)OC[C@@H]4C3)cc2c(=O)n1Cc1ccc(Cl)cc1` [Example 20] are 0.209 µM, 0.117 µM and 0.247 µM.
For `O=C1OC[C@@H]2C[C@@H](Oc3cc4c(=O)n(Cc5ccc(Cl)cc5)cnc4nc3-c3cnco3)CCN12` [Example 37], the EC50 in experiment [1] (Human alphaherpesvirus 2, 72 h) came to 0.011 µM; in experiment [2] (Human betaherpesvirus 5, 72 h), 0.02 µM; in experiment [3] (Human alphaherpesvirus 1, 72 h), 0.019 µM.
In the same order, the values of `Cc1nc2cc(-c3ccc4ncoc4c3)c(O[C@H]3CCN4C(=O)OC[C@@H]4C3)cc2c(=O)n1Cc1ccc(Cl)cc1` [Example 89] are 0.273 µM, 0.375 µM and 0.436 µM.
Turning to `Cc1nc2cc(-c3cn4ccncc4n3)c(O[C@H]3CCN4C(=O)OC[C@@H]4C3)cc2c(=O)n1Cc1ccc(Cl)cc1` [Example 91], the EC50 in experiment [1] (Human alphaherpesvirus 2, 72 h) was 0.602 µM; in experiment [2] (Human betaherpesvirus 5, 72 h), 0.479 µM; in experiment [3] (Human alphaherpesvirus 1, 72 h), 0.527 µM.
The corresponding values for `Cc1nn(C(F)F)cc1-c1cc2nc(C)n(Cc3ccc(Cl)cc3)c(=O)c2cc1O[C@H]1CCN2C(=O)OC[C@@H]2C1` [Example 92] are 0.506 µM, 0.379 µM and 0.796 µM.
The corresponding values for `COc1ncc(-c2cc3nc(C)n(Cc4ccc(Cl)cc4)c(=O)c3cc2O[C@H]2CCN3C(=O)OC[C@@H]3C2)c(C)n1` [Example 93] are 3.38 µM, 1.43 µM and 2.59 µM.
In the same order, the values of `COc1ncncc1-c1cc2nc(C)n(Cc3ccc(Cl)cc3)c(=O)c2cc1O[C@H]1CCN2C(=O)OC[C@@H]2C1` [Example 94] are 1.88 µM, 1.47 µM and 2.41 µM.
Turning to `Cc1nc2cc(-c3cnc4nccn4c3)c(O[C@H]3CCN4C(=O)OC[C@@H]4C3)cc2c(=O)n1Cc1ccc(Cl)cc1` [Example 96], the concentration for a half-maximal effect (EC50) in experiment [1] (Human alphaherpesvirus 2, 72 h) came out at 3.28 µM; in experiment [2] (Human betaherpesvirus 5, 72 h), 2.06 µM; in experiment [3] (Human alphaherpesvirus 1, 72 h), 2.92 µM.
As to `Cc1nc2cc(-c3cc4cnccn4c3)c(O[C@H]3CCN4C(=O)OC[C@@H]4C3)cc2c(=O)n1Cc1ccc(Cl)cc1` [Example 99], the EC50 in experiment [1] (Human alphaherpesvirus 2, 72 h) worked out at 0.077 µM; in experiment [2] (Human betaherpesvirus 5, 72 h) it was 0.272 µM; in experiment [3] (Human alphaherpesvirus 1, 72 h), 0.118 µM.
Regarding `Cc1nc2cc(-c3cc4ncccn4n3)c(O[C@H]3CCN4C(=O)OC[C@@H]4C3)cc2c(=O)n1Cc1ccc(Cl)cc1` [Example 100], the EC50 was determined as 0.043 µM in experiment [1] (Human alphaherpesvirus 2, 72 h); 0.063 µM in experiment [2] (Human betaherpesvirus 5, 72 h); 0.086 µM in experiment [3] (Human alphaherpesvirus 1, 72 h).
Take `Cc1nc2cc(-c3nc4cnccn4n3)c(O[C@H]3CCN4C(=O)OC[C@@H]4C3)cc2c(=O)n1Cc1ccc(Cl)cc1` [Example 101]: the EC50 came out at 0.088 µM in experiment [1] (Human alphaherpesvirus 2, 72 h); 0.449 µM in experiment [2] (Human betaherpesvirus 5, 72 h); 0.223 µM in experiment [3] (Human alphaherpesvirus 1, 72 h).
The corresponding values for `O=C1OC[C@@H]2C[C@@H](Oc3cc4c(=O)n(Cc5ccc(Cl)cc5)c(OCCO)nc4cc3-c3cnn(C(F)F)c3)CCN12` [Example 102] are 0.037 µM, 0.135 µM and 0.071 µM.
In the same order, the values of `Cc1nc2cc(-c3nc4ncccn4n3)c(O[C@H]3CCN4C(=O)OC[C@@H]4C3)cc2c(=O)n1Cc1ccc(Cl)cc1` [Example 103] are 0.055 µM, 0.083 µM and 0.055 µM.
Take `Cc1nc2cc(-c3cn4ccccc4n3)c(O[C@H]3CCN4C(=O)OC[C@@H]4C3)cc2c(=O)n1Cc1ccc(Cl)cc1` [Example 104]: the EC50 in experiment [1] (Human alphaherpesvirus 2, 72 h) stood at 0.032 µM; in experiment [2] (Human betaherpesvirus 5, 72 h) it was 0.099 µM; in experiment [3] (Human alphaherpesvirus 1, 72 h) it was 0.045 µM.
In the same order, the values of `Cc1nc2cc(-c3nc4ccccn4n3)c(O[C@H]3CCN4C(=O)OC[C@@H]4C3)cc2c(=O)n1Cc1ccc(Cl)cc1` [Example 105] are 0.055 µM, 0.112 µM and 0.048 µM.
In the same order, the values of `N#Cc1nc2cc(-c3cnn(C(F)F)c3)c(O[C@H]3CCN4C(=O)OC[C@@H]4C3)cc2c(=O)n1Cc1ccc(Cl)cc1` [Example 106] are 0.073 µM, 0.143 µM and 0.102 µM.
The corresponding values for `Cc1nc2cc(-c3cc4cncnn4c3)c(O[C@H]3CCN4C(=O)OC[C@@H]4C3)cc2c(=O)n1Cc1ccc(Cl)cc1` [Example 107] are 0.031 µM, 0.052 µM and 0.052 µM.
Regarding `Cc1nc2cc(-c3cc4n(n3)CCN(C3CCOCC3)C4)c(O[C@H]3CCN4C(=O)OC[C@@H]4C3)cc2c(=O)n1Cc1ccc(Cl)cc1` [Example 108], the EC50 in experiment [1] (Human alphaherpesvirus 2, 72 h) worked out at 0.087 µM; in experiment [2] (Human betaherpesvirus 5, 72 h), 0.201 µM; in experiment [3] (Human alphaherpesvirus 1, 72 h), 0.198 µM.
In the same order, the values of `Cc1nc2cc(-c3cnc(OC4CCOCC4)nc3)c(O[C@H]3CCN4C(=O)OC[C@@H]4C3)cc2c(=O)n1Cc1ccc(Cl)cc1` [Example 109] are 0.153 µM, 0.465 µM and 0.413 µM.
The corresponding values for `Cc1ccc(-c2cc3nc(C)n(Cc4ccc(Cl)cc4)c(=O)c3cc2O[C@H]2CCN3C(=O)OC[C@@H]3C2)nn1` [Example 110] are 0.133 µM, 0.2 µM and 0.288 µM.
In the same order, the values of `Nc1nc2cc(-c3cnn(C(F)F)c3)c(O[C@H]3CCN4C(=O)OC[C@@H]4C3)cc2c(=O)n1Cc1ccc(Cl)cc1` [Example 111] are 0.06 µM, 0.085 µM and 0.101 µM.
With `COc1ccc(-c2cc3nc(C)n(Cc4ccc(Cl)cc4)c(=O)c3cc2O[C@H]2CCN3C(=O)OC[C@@H]3C2)nc1` [Example 112], the EC50 was found to be 0.081 µM in experiment [1] (Human alphaherpesvirus 2, 72 h); 0.142 µM in experiment [2] (Human betaherpesvirus 5, 72 h); 0.148 µM in experiment [3] (Human alphaherpesvirus 1, 72 h).
In the same order, the values of `COc1cnc(-c2cc3nc(C)n(Cc4ccc(Cl)cc4)c(=O)c3cc2O[C@H]2CCN3C(=O)OC[C@@H]3C2)cn1` [Example 113] are 1.69 µM, 2.97 µM and 2.68 µM.
`Cc1nc2cc(-c3cnc(OC4CC4)nc3)c(O[C@H]3CCN4C(=O)OC[C@@H]4C3)cc2c(=O)n1Cc1ccc(Cl)cc1` [Example 114]: the concentration for a half-maximal effect (EC50) in experiment [1] (Human alphaherpesvirus 2, 72 h) was determined as 0.124 µM; in experiment [2] (Human betaherpesvirus 5, 72 h), 0.348 µM; in experiment [3] (Human alphaherpesvirus 1, 72 h) it was 0.323 µM.
In the same order, the values of `Cc1nc2cc(-c3cnc(C4CCOCC4)nc3)c(O[C@H]3CCN4C(=O)OC[C@@H]4C3)cc2c(=O)n1Cc1ccc(Cl)cc1` [Example 115] are 0.111 µM, 0.258 µM and 0.313 µM.
The corresponding values for `Cc1nc2cc(-c3cn4cccnc4n3)c(O[C@H]3CCN4C(=O)OC[C@@H]4C3)cc2c(=O)n1Cc1ccc(Cl)cc1` [Example 116] are 0.062 µM, 0.127 µM and 0.106 µM.
The corresponding values for `Cc1cnc(-c2cc3nc(C)n(Cc4ccc(Cl)cc4)c(=O)c3cc2O[C@H]2CCN3C(=O)OC[C@@H]3C2)nc1` [Example 117] are 0.455 µM, 0.304 µM and 0.652 µM.
